Data published in patent US8247211B2, “Glycopeptide antibiotics” (American Cyanamid Company, priority 2001, dated 2012).
≈ marks a conversion by molar mass, not a printed value.

Tests used:
Enterococcus sp. = test: In vitro antibacterial evaluation: minimum inhibitory concentration (MIC), broth dilution method; type: cell-based
How it was run: (§1)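 Values are minimum inhibitory concentrations, meaning the smallest antibiotic concentration that stops growth of the organism. They come from broth dilution in Muller-Hinton II […] per NCCLS guidance (M7-A2), using 5×10^5 CFU/mL and concentrations from 64 to 0.06 μg/mL.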

Escherichia coli = test: as above; type: cell-based
How it was run: as §1

Staphylococcus sp. = test: as above; type: cell-based; conditions: broth dilution, 18 hours at 35° C.
How it was run: as §1

Streptococcus sp. = test: as above; type: cell-based
How it was run: as §1

[1] = system: Staphylococcus aureus-SMITH (GC 4543); test: Acute lethal infection in mice (ED50); type: in vivo; conditions: female CD-1 mice, intraperitoneal challenge, intravenous dose 30 min. after infection, 7 day survival ratios
How it was run: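 Groups of five female CD-1 mice per dose got intravenous antibiotic in saline or 5% dextrose half an hour after intraperitoneal infection sufficient to kill controls within 24-48 hr. Seven-day survival data from three experiments were combined to derive ED50.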

## CC(c1ccccc1)C1NC(=O)CNC(=O)C(CO)NC(=O)C(C(O)C2CNC(=N)N2C2OC(CO)C(O)C(O)C2O)NC(=O)C(C(O)C2CNC(=N)N2)NC(=O)C(Cc2ccc(OC3OC(CO)C(OC4OC5COC(c6cccc(-c7ccccc7)c6)OC5C(O)C4O)C(O)C3O)cc2)NC1=O (stereo not drawn) [Example 154, Cyclo[glycyl-β-methylphenylalanyl-O-[4-O-[4,6-O-(3-phenylbenzylidene)hexopyranosyl)-hexopyranosyl]tyrosyl-3-(2-iminoimidazolidin-4-yl)seryl-3-(3-hexopyranosyl-2-iminoimidazolidin-4-yl)serylseryl]]
Enterococcus sp.; Enterococcus avium (GC 4558), broth dilution, 18 hours at 35° C.
  MIC Enterococcus avium (GC 4558): 1 µg/mL (≈ 0.685 µM)
Enterococcus sp.; Enterococcus faecalis (ATCC 29212), broth dilution, 18 hours at 35° C.
  MIC Enterococcus faecalis (ATCC 29212): 2 µg/mL (≈ 1.37 µM)
Enterococcus sp.; Enterococcus faecalis (GC 4552), broth dilution, 18 hours at 35° C.
  MIC Enterococcus faecalis (GC 4552): 2 µg/mL (≈ 1.37 µM)
Enterococcus sp.; Enterococcus faecalis (GC 4553), broth dilution, 18 hours at 35° C.
  MIC Enterococcus faecalis (GC 4553): 2 µg/mL (≈ 1.37 µM)
Enterococcus sp.; Enterococcus faecalis (GC 4554), broth dilution, 18 hours at 35° C.
  MIC Enterococcus faecalis (GC 4554): 2 µg/mL (≈ 1.37 µM)
Enterococcus sp.; Enterococcus faecalis (GC 6189), broth dilution, 18 hours at 35° C.
  MIC Enterococcus faecalis (GC 6189): 2 µg/mL (≈ 1.37 µM)
Enterococcus sp.; Enterococcus faecium (GC 2243), broth dilution, 18 hours at 35° C.
  MIC Enterococcus faecium (GC 2243): 2 µg/mL (≈ 1.37 µM)
Enterococcus sp.; Enterococcus faecium (GC 4556), broth dilution, 18 hours at 35° C.
  MIC Enterococcus faecium (GC 4556): 2 µg/mL (≈ 1.37 µM)
Enterococcus sp.; Enterococcus faecium (GC 4557), broth dilution, 18 hours at 35° C.
  MIC Enterococcus faecium (GC 4557): 2 µg/mL (≈ 1.37 µM)
Enterococcus sp.; strain ATCC 29212
  MIC Enterococcus faecalis (ATCC 29212): 2 µg/mL (≈ 1.37 µM)
Enterococcus sp.; strain GC 2242
  MIC Enterococcus faecalis (GC 2242): 2 µg/mL (≈ 1.37 µM)
Enterococcus sp.; strain GC 2243
  MIC Enterococcus faecium (GC 2243): 2 µg/mL (≈ 1.37 µM)
Enterococcus sp.; strain GC 2691
  MIC Enterococcus faecalis (GC 2691): 2 µg/mL (≈ 1.37 µM)
Enterococcus sp.; strain GC 3059
  MIC Enterococcus faecalis (GC 3059): 2 µg/mL (≈ 1.37 µM)
Enterococcus sp.; strain GC 4552
  MIC Enterococcus faecalis (GC 4552): 2 µg/mL (≈ 1.37 µM)
Enterococcus sp.; strain GC 4553
  MIC Enterococcus faecalis (GC 4553): 2 µg/mL (≈ 1.37 µM)
Enterococcus sp.; strain GC 4554
  MIC Enterococcus faecalis (GC 4554): 2 µg/mL (≈ 1.37 µM)
Enterococcus sp.; strain GC 4556
  MIC Enterococcus faecium (GC 4556): 2 µg/mL (≈ 1.37 µM)
Enterococcus sp.; strain GC 4557
  MIC Enterococcus faecium (GC 4557): 2 µg/mL (≈ 1.37 µM)
Enterococcus sp.; strain GC 4558
  MIC Enterococcus avium (GC 4558): 1 µg/mL (≈ 0.685 µM)
Enterococcus sp.; strain GC 6189
  MIC Enterococcus faecalis (GC 6189): 2 µg/mL (≈ 1.37 µM)
Escherichia coli; strain ATCC 25922
  MIC Escherichia coli (ATCC 25922): 32 µg/mL (≈ 21.9 µM)
Escherichia coli; strain GC 4559
  MIC Escherichia coli (GC 4559): 32 µg/mL (≈ 21.9 µM)
Escherichia coli; strain GC 4560
  MIC Escherichi coli (GC 4560): 2 µg/mL (≈ 1.37 µM)
Staphylococcus sp.; 5×10^5 CFU/mL
  MIC Coagulase Negative Staphylococcus (GC 4547): 2 µg/mL (≈ 1.37 µM)
  MIC Coagulase Negative Staphylococcus (GC 4548): 0.5 µg/mL (≈ 0.343 µM)
  MIC Coagulase Negative Staphylococcus (GC 4549): 0.25 µg/mL (≈ 0.171 µM)
  MIC Coagulase Negative Staphylococcus (GC 4551): 2 µg/mL (≈ 1.37 µM)
  MIC Coagulase Negative Staphylococcus (GC 6257): 1 µg/mL (≈ 0.685 µM)
  MIC Staphylococcus aureus (ATCC 29213): 1 µg/mL (≈ 0.685 µM)
  MIC Staphylococcus aureus (GC 1131): 1 µg/mL (≈ 0.685 µM)
  MIC Staphylococcus aureus (GC 3051): 1 µg/mL (≈ 0.685 µM)
  MIC Staphylococcus aureus (GC 3053): 2 µg/mL (≈ 1.37 µM)
  MIC Staphylococcus aureus (GC 4541): 1 µg/mL (≈ 0.685 µM)
  MIC Staphylococcus aureus (GC 4542): 1 µg/mL (≈ 0.685 µM)
  MIC Staphylococcus aureus (GC 4544): 2 µg/mL (≈ 1.37 µM)
  MIC Staphylococcus aureus (GC 4545): 1 µg/mL (≈ 0.685 µM)
  MIC Staphylococcus aureus-SMITH (GC 4543): 1 µg/mL (≈ 0.685 µM)
  MIC Staphylococcus haemolyticus (GC 4546): 1 µg/mL (≈ 0.685 µM)
Staphylococcus sp.; strain ATCC 29213
  MIC Staphylococcus aureus (ATCC 29213): 1 µg/mL (≈ 0.685 µM)
Staphylococcus sp.; strain GC 1131
  MIC Staphylococcus aureus (GC 1131): 1 µg/mL (≈ 0.685 µM)
Staphylococcus sp.; strain GC 3051
  MIC Staphylococcus aureus (GC 3051): 1 µg/mL (≈ 0.685 µM)
Staphylococcus sp.; strain GC 3053
  MIC Staphylococcus aureus (GC 3053): 2 µg/mL (≈ 1.37 µM)
Staphylococcus sp.; strain GC 4541
  MIC Staphylococcus aureus (GC 4541): 1 µg/mL (≈ 0.685 µM)
Staphylococcus sp.; strain GC 4542
  MIC Staphylococcus aureus (GC 4542): 1 µg/mL (≈ 0.685 µM)
Staphylococcus sp.; strain GC 4543
  MIC Staphylococcus aureus-SMITH (GC 4543): 1 µg/mL (≈ 0.685 µM)
Staphylococcus sp.; strain GC 4544
  MIC Staphylococcus aureus (GC 4544): 2 µg/mL (≈ 1.37 µM)
Staphylococcus sp.; strain GC 4545
  MIC Staphylococcus aureus (GC 4545): 1 µg/mL (≈ 0.685 µM)
Staphylococcus sp.; strain GC 4546
  MIC Staphylococcus haemolyticus (GC 4546): 1 µg/mL (≈ 0.685 µM)
Staphylococcus sp.; strain GC 4547
  MIC Coagulase Negative Staphylococcus (GC 4547): 2 µg/mL (≈ 1.37 µM)
Staphylococcus sp.; strain GC 4548
  MIC Coagulase Negative Staphylococcus (GC 4548): 0.5 µg/mL (≈ 0.343 µM)
Staphylococcus sp.; strain GC 4549
  MIC Coagulase Negative Staphylococcus (GC 4549): 0.25 µg/mL (≈ 0.171 µM)
Staphylococcus sp.; strain GC 4551
  MIC Coagulase Negative Staphylococcus (GC 4551): 2 µg/mL (≈ 1.37 µM)
Staphylococcus sp.; strain GC 6257
  MIC Coagulase Negative Staphylococcus (GC 6257): 1 µg/mL (≈ 0.685 µM)
Streptococcus sp.; strain ATCC 6301
  MIC Streptococcus pneumoniae (ATCC 6301): <0.06 µg/mL
Streptococcus sp.; strain GC 1894
  MIC Streptococcus pneumoniae (GC 1894): <0.06 µg/mL
Streptococcus sp.; strain GC 4563
  MIC Streptococcus pyogenes (GC 4563): <0.06 µg/mL
Streptococcus sp.; strain GC 4564
  MIC Streptococcus agalactiae (GC 4564): <0.06 µg/mL
Streptococcus sp.; strain GC 4565
  MIC Streptococcus pneumoniae (GC 4565): <0.06 µg/mL
[1]
  median effective dose (ED50), Staphylococcus aureus-SMITH (GC 4543): 0.1 mg/kg
